In US20070299047A1, “Combination of Organic Compounds” (priority 2004, published 2007):

Tests used:
ob/ob mice = test: Food intake in ob/ob mice after seven days of treatment; type: in vivo; conditions: 5 mg/kg/day
[1] = tested on: Chrna2 (cholinergic receptor, neuronal nicotinic, alpha polypeptide 2); test: Chrna2 gene expression in the duodenum of treated ob/ob mice; type: in vivo; conditions: p<0.01

## Cc1oc(-c2ccc(C(F)(F)F)cc2)nc1COc1ccc(S(=O)(=O)N2c3ccccc3C[C@@H]2C(=O)O)cc1 [(R)-1-{4-[5-methyl-2-(4-trifluoromethyl-phenyl)-oxazol-4-ylmethoxy]-benzenesulfonyl}-2,3-dihydro-1H-indole-2-carboxylic acid]
ob/ob mice; by day 7, p<0.01
  daily food intake down by: 50%
ob/ob mice; starting on day 3
  food intake compared to vehicle: significantly lowered food intake
[1]; after 1 day of treatment
  Chrna2 expression in the duodenum increased by: 15 fold
[1]; after 2 days of treatment
  Chrna2 expression in the duodenum increased by: 11 fold
[1]; after 7 days of treatment
  Chrna2 expression in the duodenum increased by: ~140 fold
